Reference: US8183258B2, “Heterocyclic compounds and their uses” (Amgen Inc., priority 2007, dated 2012)
Read-outs that look alike come from different tables or passages of the source.

Assays:
[1] = tested on: mouse model of rheumatoid arthritis; settings: in vivo; cited from earlier work
[2] = tested on: model of systemic lupus erythematosis; settings: in vivo; cited from earlier work
[3] = molecular target: T1, PI3Kδ (Homo sapiens, UniProt O00329); assay: In vitro enzyme assay, residual ATP bioluminescence; type: biochemical
T1 construct: Full length p110 subunits of PI3k α, β and δ; polyHis (N); made in house; host or cells: Sf9 insect cells (baculovirus)
Experimental: Full length p110 subunits of PI3k α, β and δ, N-terminally labeled with polyHis tag, were coexpressed with p85 with Baculo virus expression vectors in sf9 insect cells. P110/p85 heterodimers were purified by sequential Ni-NTA, Q-HP, Superdex-100 chromatography. Purified α, β and δ isozymes were stored at −20° C. in 20 mM Tris, pH 8, 0.2M NaCl, 50% glycerol, 5 mM DTT, 2 mM Na cholate. Truncated PI3Kγ, residues 114-1102, N-terminally labeled with polyHis tag, was expessed with Baculo virus in Hi5 insect cells. The γ isozyme was purified by sequential Ni-NTA, Superdex-200, Q-HP chromatography. The γ isozyme was stored frozen at −80° C. in NaH2PO4, pH 8, 0.2M NaCl, 1% ethylene glycol, 2 mM β-mercaptoethanol.
Assays were performed in 25 μL with the above final concentrations of components in white polyproplyene plates (Costar 3355). Phospatidyl inositol phosphoacceptor, PtdIns(4,5)P2 P4508, was from Echelon Biosciences. The ATPase activity of the alpha and gamma isozymes was not greatly stimulated by PtdIns(4,5)P2 under these conditions and was therefore omitted from the assay of these isozymes. Test compounds were dissolved in dimethyl sulfoxide and diluted with three-fold serial dilutions. The compound in DMSO (1 μL) was added per test well, and the inhibition relative to reactions containing no compound, with and without enzyme was determined. After assay incubation at room temperature, the reaction was stopped and residual ATP determined by addition of an equal volume of a commercial ATP bioluminescence kit (Perkin Elmer EasyLite) according to the manufacturer's instructions, and detected using a AnalystGT luminometer.

[4] = tested on: ovalbumin-induced airway inflammation; settings: cited from earlier work
[5] = molecular target: T2, p110δ (Homo sapiens, UniProt O00329); settings: cited from earlier work
T2 sequence (O00329 1-1044): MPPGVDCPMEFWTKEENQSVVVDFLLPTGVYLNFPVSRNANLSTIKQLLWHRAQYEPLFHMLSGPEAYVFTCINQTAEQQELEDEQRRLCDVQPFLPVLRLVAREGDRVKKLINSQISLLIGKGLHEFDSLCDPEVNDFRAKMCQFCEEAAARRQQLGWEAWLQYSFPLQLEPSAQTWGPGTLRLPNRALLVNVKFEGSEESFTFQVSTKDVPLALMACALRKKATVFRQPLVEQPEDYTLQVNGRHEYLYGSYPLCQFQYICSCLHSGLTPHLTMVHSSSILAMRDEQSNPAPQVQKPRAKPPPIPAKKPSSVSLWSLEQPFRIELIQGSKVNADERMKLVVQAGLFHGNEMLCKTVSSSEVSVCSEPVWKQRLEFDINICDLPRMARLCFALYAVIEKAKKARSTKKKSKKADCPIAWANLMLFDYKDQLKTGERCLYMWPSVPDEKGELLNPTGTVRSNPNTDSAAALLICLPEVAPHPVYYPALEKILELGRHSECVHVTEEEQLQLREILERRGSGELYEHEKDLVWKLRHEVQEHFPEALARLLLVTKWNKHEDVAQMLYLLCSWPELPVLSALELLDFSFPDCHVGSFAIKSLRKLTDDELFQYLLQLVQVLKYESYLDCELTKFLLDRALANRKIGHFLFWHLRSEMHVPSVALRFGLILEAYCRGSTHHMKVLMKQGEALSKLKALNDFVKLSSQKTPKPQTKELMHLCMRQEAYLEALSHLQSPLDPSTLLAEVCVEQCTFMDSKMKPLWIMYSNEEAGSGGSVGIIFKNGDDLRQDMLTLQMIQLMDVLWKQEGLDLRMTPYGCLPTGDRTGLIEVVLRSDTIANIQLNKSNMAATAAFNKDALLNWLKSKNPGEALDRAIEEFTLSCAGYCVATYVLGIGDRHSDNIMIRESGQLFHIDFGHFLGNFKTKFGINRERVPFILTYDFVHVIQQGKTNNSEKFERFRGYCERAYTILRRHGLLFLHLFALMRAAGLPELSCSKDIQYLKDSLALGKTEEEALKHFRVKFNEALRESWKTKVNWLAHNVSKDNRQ

[6] = tested on: protein kinases; settings: cited from earlier work
[7] = tested on: passive cutaneous anaphylaxis (PCA); settings: absence of functional delta (compound or p110δ D910A mice); cited from earlier work

T1 sequence (P27986 whole entry partner, one chain of several): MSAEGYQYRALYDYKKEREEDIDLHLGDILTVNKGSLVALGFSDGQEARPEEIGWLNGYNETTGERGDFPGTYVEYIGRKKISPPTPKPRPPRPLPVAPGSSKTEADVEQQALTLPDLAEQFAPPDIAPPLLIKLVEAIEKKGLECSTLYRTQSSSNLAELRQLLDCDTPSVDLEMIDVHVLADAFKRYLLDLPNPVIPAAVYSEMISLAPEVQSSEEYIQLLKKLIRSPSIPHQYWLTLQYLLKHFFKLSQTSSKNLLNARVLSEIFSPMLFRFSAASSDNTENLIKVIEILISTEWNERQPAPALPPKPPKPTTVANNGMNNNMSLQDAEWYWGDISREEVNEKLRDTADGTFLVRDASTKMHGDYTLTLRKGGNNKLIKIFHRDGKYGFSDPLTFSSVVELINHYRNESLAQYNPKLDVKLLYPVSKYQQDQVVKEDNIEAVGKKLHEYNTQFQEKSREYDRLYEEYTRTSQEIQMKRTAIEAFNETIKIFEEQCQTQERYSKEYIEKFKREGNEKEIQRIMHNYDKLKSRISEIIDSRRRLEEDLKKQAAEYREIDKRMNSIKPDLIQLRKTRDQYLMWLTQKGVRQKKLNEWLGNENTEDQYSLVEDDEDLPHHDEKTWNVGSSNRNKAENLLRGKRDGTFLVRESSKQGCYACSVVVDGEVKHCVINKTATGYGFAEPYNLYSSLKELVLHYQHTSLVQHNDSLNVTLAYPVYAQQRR

O=C1NC(=O)/C(=C\c2ccc3nccnc3c2)S1 [AS 605240]
efficacy in a mouse model of rheumatoid arthritis [1]: efficacious
onset of disease in a model of systemic lupus erythematosis [2]: delay onset of disease

Cc1cccc2cc(CNc3nc(N)ncc3Cl)c(-c3ccccc3Cl)nc12 [Example 1, 5-Chloro-N4-((2-(2-chlorophenyl)-8-methylquinolin-3-yl)methyl)pyrimidine-2,4-diamine]
IC50 ([3]; read-out: PI3Kδ IC50): 0.165 µM

Nc1cc(NCc2cc3cccc(Cl)c3nc2-c2ccccc2Cl)ncn1 [Example 2, N4-((8-Chloro-2-(2-chlorophenyl)quinolin-3-yl)-methyl)pyrimidine-4,6-diamine]
IC50 ([3]; read-out: PI3Kδ IC50): 6.87 µM

Cc1cccc2cc(CNc3nc(N)ncc3C(F)(F)F)c(-c3ccccc3Cl)nc12 [Example 3, N4-((2-(2-chlorophenyl)-8-methylquinolin-3-yl)methyl)-5-(trifluoromethyl)pyrimidine-2,4-diamine]
IC50 ([3]; read-out: PI3Kδ IC50): 0.127 µM

Cc1cccc2cc(CNc3ncc(C(F)(F)F)c(N)n3)c(-c3ccccc3Cl)nc12 [Example 4, N2-((2-(2-chlorophenyl)-8-methylquinolin-3-yl)methyl)-5-(trifluoromethyl)pyrimidine-2,4-diamine]
IC50 ([3]; read-out: PI3Kδ IC50): 2.83 µM

NC(=O)c1cc(NS(=O)(=O)c2cc3cccc(Cl)c3nc2-c2ccccc2Cl)ccn1 [Example 7, 4-(8-chloro-2-(2-chlorophenyl)quinoline-3-sulfonamido)picolinamide]
IC50 ([3]; table after the in vitro enzyme assays, isoform and unit inferred, read-out: IC50): > 40 µM

Cc1ccccc1-n1c(Cn2cnc3c(N)ncnc32)nc2cccc(C)c2c1=O [IC87114]
inflammation and disease in a murine model of asthma [4]: significantly ameliorate inflammation and disease
inhibition of p110δ [5]: high nanomolar range (triple digit)
activity against any protein kinases tested [6]: no activity
passive cutaneous anaphylaxis (PCA) [7]: significantly reduced
